Reference: PubChem BioAssay (NCI)
Several values for one entry are separate records, joined by “and”; a condition that tells them apart may be missing. Equal values may be shown once.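 How tested: cells in 96-well plates exposed to compound for 48 hours at five concentrations. GI50 = concentration required for 50% inhibition of growth. TGI marks complete inhibition of growth.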

What was measured:
Experiment in all cases: growth of human tumour cells (NCI), 48 h
ACHN renal = tested on: ACHN renal
NCI-H23 lung = tested on: NCI-H23 lung
RPMI-8226 leukemia = tested on: RPMI-8226 leukemia
OVCAR-8 ovarian = tested on: OVCAR-8 ovarian
OVCAR-4 ovarian = tested on: OVCAR-4 ovarian
NCI/ADR-RES ovarian = tested on: NCI/ADR-RES ovarian
CCRF-CEM leukemia = tested on: CCRF-CEM leukemia
M14 melanoma = tested on: M14 melanoma
SK-MEL-28 melanoma = tested on: SK-MEL-28 melanoma
SK-MEL-2 melanoma = tested on: SK-MEL-2 melanoma

SMILES | GI50 (ACHN renal) [µM] | TGI (ACHN renal) [µM] | GI50 (NCI-H23 lung) | TGI (NCI-H23 lung) | GI50 (RPMI-8226 leukemia) | TGI (RPMI-8226 leukemia) | GI50 (OVCAR-8 ovarian) [µM] | TGI (OVCAR-8 ovarian) [µM] | GI50 (OVCAR-4 ovarian) | TGI (OVCAR-4 ovarian) [µM] | GI50 (NCI/ADR-RES ovarian) [µM] | TGI (NCI/ADR-RES ovarian) [µM] | GI50 (CCRF-CEM leukemia) [µM] | TGI (CCRF-CEM leukemia) | GI50 (M14 melanoma) | TGI (M14 melanoma) | GI50 (SK-MEL-28 melanoma) [µM] | TGI (SK-MEL-28 melanoma) | TGI (SK-MEL-2 melanoma) | GI50 (SK-MEL-2 melanoma)
O=C(Nc1nc2c(C(F)(F)F)cccc2s1)c1cc(Cl)ccc1O | 0.295 | 0.961 | 0.296 µM | 1.44 µM | 0.203 µM | 0.52 µM | 0.326 | 53.8 | 0.34 µM | > 100 | 0.311 | 21.6 | 0.328 | 12.5 µM | 0.35 µM | 22.8 µM | 0.331 | 8.18 µM | – | –
CC(NNC(=S)N1CCN(c2ccccn2)CC1)c1nccc2ccccc12 (centres undefined) | – | 10.9 | – | 13.7 µM | – | – | – | 15.7 | – | 19.2 | – | 12 | – | 1.02 µM | – | 2.46 µM | – | 18.5 µM | 18.3 µM | –
O=C(Nc1ccc(Br)cc1)C(=O)C(C(=O)c1ccc(Cl)c(Cl)c1)C1OC(=O)c2ccccc21 (centres undefined) | – | 35.5 | – | 29.3 µM | – | > 100 µM | – | 32.3 | – | 50.5 | – | – | – | > 100 µM | – | 31.9 µM | – | 29.2 µM | – | –
Cc1cc(N(CCC#N)S(=O)(=O)c2ccccc2)ccc1C=Nc1ccc(C(=O)O)cc1 | – | > 33.2 | – | 33.9 µM | – | > 21.2 µM | – | 15.5 | – | 18.6 | – | – | – | > 26.5 µM | – | 21.8 µM | – | 28.3 µM | 22.3 µM | –
O=C(Nc1ccc(Cl)c(Cl)c1)c1ccc(NC2=C(Cl)C(=O)N(Cc3ccccc3)C2=O)cc1 | – | – | 14.2 µM | 27.4 µM | 2.02 µM | 4.29 µM | 2.6 | 4.41 | 17.2 µM | 42.1 | 5.04 | 17 | 2.3 | 7.79 µM | 17.1 µM | 32.9 µM | 21.2 | 63.5 µM | 22.1 µM | 10.1 µM
Cc1cc(-c2ccccc2)nc(Nc2cc3ccccc3[nH]2)n1 | – | > 100 | – | > 100 µM | – | > 100 µM | – | > 100 | – | > 100 | – | – | – | > 100 µM | – | > 100 µM | – | > 100 µM | > 100 µM | –
O=C1c2ccccc2C(=O)N1CC#CCO | – | > 100 | – | > 100 µM | – | – | – | > 100 | – | > 100 | – | – | – | > 100 µM | – | > 100 µM | – | > 100 µM | > 100 µM | –
CC(=O)C(CN1C(=O)c2ccccc2C1=O)C(C)=O | – | > 100 | – | > 100 µM | – | – | – | > 100 | – | > 100 | – | – | – | – | – | > 100 µM | – | > 100 µM | > 100 µM | –
CCN1CCN(C(=O)[C@]23CC[C@@H](C)[C@H](C)[C@@H]2C2=CC[C@@H]4[C@@]5(C)CCC(=O)C(C)(C)[C@@H]5CC[C@@]4(C)[C@]2(C)CC3)CC1 | 1.33 | 4.38 | 1.08 µM | 2.9 µM | – | – | 1.1 | 2.89 | 1.26 µM | 4.74 | 1.08 | 3.24 | 0.976 | 2.74 µM | 0.794 µM | 1.61 µM | 0.889 | 1.7 µM | 3.33 µM | 1.29 µM
COc1cc(C2c3cc4c(cc3[C@@H](NC3CCN(Cc5ccccc5)CC3)C3COC(=O)[C@H]23)OCO4)cc(OC)c1O (some centres undefined) | – | – | 0.126 µM and 0.0406 µM | 0.623 µM and 0.224 µM | 0.151 µM and 0.054 µM | 2.82 µM and 0.465 µM | – | 0.587 | 0.209 µM and 1.12 µM | – | – | – | – | 0.232 µM and 0.12 µM | 0.18 µM and 0.0484 µM | 0.744 µM and 0.346 µM | – | 2.84 µM and 1.57 µM | 2.77 µM and 0.496 µM | 1.05 µM and 0.239 µM
CCCCCCCCCCCCCCNCC(OC)OC | – | 31.1 | – | 36.8 µM | – | – | – | 44.3 | – | 30.1 | – | – | – | 36.4 µM | – | 27.4 µM | – | 30.4 µM | 30.9 µM | –
OC1OCC(COc2cc(Cl)c(Cl)cc2Cl)OC1O (centres undefined) | – | > 100 | – | > 100 µM | – | 77.9 µM | – | > 100 | – | > 100 | – | – | – | 89.6 µM | – | > 100 µM | – | > 100 µM | – | –
COc1ccc(N=NC2=C(O)CCC2=O)cc1 | – | > 100 | – | > 100 µM | – | – | – | > 100 | – | > 100 | – | – | – | > 100 µM | – | > 100 µM | – | > 100 µM | > 100 µM | –
CC1(C)CC(=O)C(CC2C(=O)CCCC2=O)C(=O)C1 | – | > 100 | – | > 100 µM | – | – | – | > 100 | – | > 100 | – | – | – | > 100 µM | – | > 100 µM | – | > 100 µM | > 100 µM | –
CCOC(=O)C1=C(Nc2ccc(OC)cc2)C(N)=NC1=N | 8.84 | > 100 | 4.84 µM | > 100 µM | – | – | 4.63 | > 100 | – | – | 3.38 | > 100 | 3.24 | > 100 µM | – | – | 6.89 | > 100 µM | > 100 µM | 8.03 µM
O=[N+]([O-])c1ccc2c(c1)C(N1CCN(CCO)CC1)Cc1ccc(F)cc1S2 (centres undefined) | – | 16.7 | – | 29 µM | – | – | – | 25.5 | – | 33.5 | – | 25.4 | – | 16.1 µM | – | – | – | 6.06 µM | – | –
CCCCCCCCCC1CC(=O)OC2=C1C(=O)CCC2 (centres undefined) | – | > 100 | – | > 100 µM | – | > 100 µM | – | > 100 | – | > 100 | – | – | – | > 100 µM | – | > 100 µM | – | > 100 µM | > 100 µM | –
NC(=O)NNC/C(Cl)=C(\Cl)C(=O)O | – | > 100 | – | > 100 µM | – | > 100 µM | – | > 100 | – | > 100 | – | – | – | > 100 µM | – | > 100 µM | – | > 100 µM | > 100 µM | –
C/C(=N\N=C(N)N)C(CN1CCOCC1)C(c1ccccc1)c1c(O)c2ccccc2oc1=O (centres undefined) | – | > 100 | – | > 100 µM | – | > 100 µM | – | > 100 | – | > 100 | – | – | – | > 100 µM | – | > 100 µM | – | > 100 µM | > 100 µM | –
C[C@]12CC[C@H]3[C@@H](CC[C@]4(O)C[C@@H](O)CC[C@]34C=O)[C@@]1(O)CC[C@@H]2C1=CC(=O)OC1 | – | 1.49 | – | 1.12 µM | – | – | – | 1.69 | – | 2.33 | – | 1.92 | – | > 100 µM | – | 3.51 µM | – | 4.84 µM | 2.86 µM | –
CCCCCCC(=O)NC1=C(N2CC2)C(=O)C(NC(=O)CCCCCC)=C(N2CC2)C1=O | 2.76 | > 100 | – | – | – | – | – | – | 3.11 µM | > 100 | 3.18 | > 100 | 4.32 | > 100 µM | 2.25 µM | > 100 µM | > 100 | > 100 µM | 6.14 µM | 2.52 µM
